In ChEMBL document CHEMBL1201862, “PubChem BioAssay data set” (2004):
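Compound exposure: 48 hours, 5 concentrations, 96-well plates. Abbreviation: GI50, concentration required for 50% inhibition of growth.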 Activity calls are given as the source filed them. Cut-off read from the data, not from the text of the source: active = GI50 up to about 1.1 µM and inactive = higher.

Tests used:
Assay in all cases: NCI-60 cell line screen, 48 h
[1] = test system: HCC 2998
[2] = test system: HT-29
[3] = test system: SNB-75
[4] = test system: MOLT-4
[5] = test system: HCT-15
[6] = test system: CAKI-1
[7] = test system: HOP-92
[8] = test system: KM12
[9] = test system: UACC-257
[10] = test system: OVCAR-5
[11] = test system: SF-268
[12] = test system: SK-MEL-2
[13] = test system: A498
[14] = test system: SF-295
[15] = test system: HOP-62
[16] = test system: UO-31
[17] = test system: IGROV-1
[18] = test system: NCI-H460
[19] = test system: UACC-62
[20] = test system: RPMI-8226

Measured: GI50

CCCCN(CCCC)C(=O)C(=O)C(C(=O)C(=O)OC)c1nc2ccccc2o1 (stereo not given)
44.5 µM: [5]
inactive: [1] > 100 µM | [2] > 100 µM | [3] > 100 µM | [4] 29 µM | [6] > 100 µM | [7] > 100 µM | [8] > 100 µM | [9] > 100 µM | [10] > 100 µM | [11] > 100 µM | [12] > 100 µM | [13] > 100 µM | [14] > 100 µM | [15] 74.5 µM | [16] > 100 µM | [17] 50.8 µM | [18] > 100 µM

CC(C)c1ccccc1SC1CC(=O)CC(Sc2ccccc2C(C)C)C12O[C@H](c1ccccc1)[C@@H](c1ccccc1)O2 (stereo not given in full)
31.7 µM: [5]
inactive: [1] 36 µM | [2] 58.5 µM | [19] 28.4 µM | [4] 23.4 µM | [6] 26.3 µM | [7] 95.9 µM | [8] 59.6 µM | [9] > 100 µM | [10] > 100 µM | [12] 35.6 µM | [20] 17.3 µM | [13] > 100 µM | [14] > 100 µM | [15] > 100 µM | [17] 34.1 µM | [18] > 100 µM

NCCCn1c(Cl)nc2ccccc21
inactive: [1] > 100 µM | [2] > 100 µM | [3] > 100 µM | [19] > 100 µM | [4] > 100 µM | [6] > 100 µM | [8] > 100 µM | [10] > 100 µM | [11] > 100 µM | [12] > 100 µM | [20] > 100 µM | [13] > 100 µM | [14] > 100 µM | [15] > 100 µM | [16] > 100 µM | [17] > 100 µM | [18] > 100 µM
> 100 µM: [5]

CNC(=S)N/N=C(/C)CCC/C(C)=N/NC(=S)NC
inactive: [3] 29 µM | [19] > 58.2 µM | [6] > 100 µM | [7] > 100 µM | [8] > 100 µM | [9] > 100 µM | [11] > 35.2 µM | [12] > 100 µM | [20] 5.61 µM | [13] > 75 µM | [14] > 100 µM | [15] > 100 µM | [16] > 54.8 µM | [17] 3.02 µM | [18] > 56.9 µM
11 µM: [5]
active: [2] 0.499 µM | [4] 0.0414 µM | [10] 1 µM

O=C1/C(=C/c2ccc(C(=O)O)cc2)CNC/C1=C\c1ccc(C(=O)O)cc1
> 100 µM: [5]
inactive: [1] > 100 µM | [2] > 100 µM | [3] > 100 µM | [19] > 100 µM | [4] > 100 µM | [7] > 100 µM | [8] > 100 µM | [9] > 100 µM | [10] > 100 µM | [11] > 100 µM | [20] > 100 µM | [13] > 100 µM | [14] > 100 µM | [15] > 100 µM | [16] > 100 µM | [17] > 100 µM | [18] > 100 µM

C=C1CC(OC)(C(OC)C(=O)N(C)[C@H]2OCO[C@H]3C2O[C@H](C[C@@H](COC)OC)C(C)(C)C3OC)O[C@H](C)[C@@H]1C (stereo not given in full)
inactive: [1] 10.8 µM | [2] 5.77 µM | [3] 4.4 µM | [19] 14.5 µM | [4] 7.18 µM | [6] 5.69 µM | [8] 5.33 µM | [9] 11.6 µM | [10] 26.7 µM | [11] 4.6 µM | [20] 17.2 µM | [13] 12 µM | [14] 7 µM | [15] > 91.6 µM | [16] 15.7 µM | [17] 10.1 µM | [18] 9.46 µM
18 µM: [5]

C[n+]1ccc(Nc2ccc(NC(=O)c3ccc(Nc4cc[n+](C)c5ccc([N+](=O)[O-])cc45)cc3[N+](=O)[O-])cc2)cc1
inactive: [1] > 100 µM | [3] > 57.4 µM | [19] 26.1 µM | [4] 32.3 µM | [6] > 75.3 µM | [7] 22.8 µM | [8] 65.9 µM | [9] 24.3 µM | [11] 40.6 µM | [12] 48.8 µM | [20] 24 µM | [13] 36.7 µM | [14] 30.4 µM | [15] 59.8 µM | [16] 45.3 µM | [18] 25.7 µM
44.8 µM: [5]
